Laboratory results as given in US20090011447A1, “QUANTIFICATION OF VITELLOGENIN” (priority 2006, published 2009).
“And” between values parts separate entries of the source, which are not always exact repeats. Identical values can stand only once.

Legend:
Assay type in all cases: in vivo
plasma Vtg [1] = test: Vtg induction with β-estradiol in Rainbow trout, plasma signature peptide quantified by HPLC-QqToF-MS/MS; conditions: experimental (E) Rainbow trout, individual fish
Experimental: (§1) Thirteen juvenile Rainbow trout and ten mature Atlantic salmon were kept in two 60 gallon tanks with running fresh and sea water, respectively. A 12 hour light-darkness cycle was maintained during the experiment. After one month of acclimatization, experimental fish were injected intraperitoneally four times, at one week intervals, with a dose of 10 mg of β-estradiol per kilogram of body weight using a 10 mg/mL solution in oil:acetone (9:1). Control fish were injected with the oil:acetone solution only.
(§2) One week before the first injection and one week after the last injection, fish were anesthetized using tricaine methanesulfonate (TMS) and blood samples were collected from the caudal vein using heparinized syringes and transferred in 1 mL portions into plastic tubes kept in ice. Samples were centrifuged at 3000 rpm for 5 minutes at 0° C. Plasma was separated and kept frozen at −80° C. until further analysis.
(§3) Five μL of plasma were mixed with 100 μL of denaturing buffer (8M urea, 4 mM dithiothreitol) and heated at 65° C. Then, 300 μL of a 50 mM solution of NH4HCO3 were added, followed by 95 μL of a 20 μg/mL trypsin solution. Digestion was carried out at 38° C. for 24 hours. Aliquots of 100 μL of the digested samples were mixed with 380 μL of solvent B (H2O: acetonitrile: acetic acid 70:30:0.1) and spiked with 20 μL of 5 μg/mL labeled standard solution. Finally, the samples were passed through 0.45 μm filters (Millipore Billerica Mass., USA, Cat. No. SJHV004NS) prior to injection into the HPLC.
(§4) In the case of Rainbow trout and salmon, samples and standards were analyzed with a HPLC system (HP 1050 from Hewlett-Packard, Palo Alto Calif., USA) coupled on-line to a QqToF (QStar XL, Applied Biosystems, Foster City Calif., USA) tandem mass spectrometer equipped with an ESI ion source (TurbolonSpray). […]
(§5) For quantification purposes, the extracted ion chromatograms of these diagnostic product ions were generated using a 2 Da mass range window around the selected product ions and manually integrated. […]

plasma Vtg [2] = test: Vtg induction with β-estradiol in Atlantic salmon, plasma signature peptide quantified by HPLC-QqToF-MS/MS; conditions: experimental (E) Atlantic salmon, individual fish
Experimental: as §1, §2, §3, §4, §5

Vtg = Vtg induction with β-estradiol in Atlantic cod, assessed by SDS-PAGE; conditions: experimental Atlantic cod serum, Coomassie blue stained gel, vs control fish
Experimental: Twelve mature female Atlantic cod fish were kept in a 60 gallon tank with a running sea water supply and fed, ad libitum. A 12 hour light-darkness cycle was maintained during the experiment. After one month of acclimatization, experimental fish were injected intraperitoneally four times, at one week intervals, a dose of 10 mg of β-estradiol per kilogram of fish body weight using a 10 mg/ml solution in oil:acetone (9:1). Control fish were injected only with the oil:acetone solution. One week after the last injection, fish were anesthetized using tricaine methanesulfonate (TMS) and bled. Blood samples were collected from the caudal vein using heparinized syringes and transferred in 1 mL portions into plastic tubes kept in ice. Twenty microliters of a 4 TIU aprotinin solution were added to each sample, homogenized and centrifuged at 3000 rpm for 5 minutes at 0° C. Plasma was separated and kept frozen at -80° C. until further analysis. Separation of Vtg by SDS-PAGE and subsequent “in-gel” digestion was performed following the procedure described in detail by […] et al. with minor modifications^65. Five microliters of thawed plasma from both experimental and control fish were mixed and loaded onto a 6% acrylamide gel and run for one hour at 180 V. The gel was stained using the colloidal Coomassie blue protocol. […]

[3] = converted from SP assuming 1:1 molar ratio
[4] = one week after last of four weekly i.p. injections of 10 mg/kg, 10 mg/kg

With `C[C@]12CC[C@@H]3c4ccc(O)cc4CC[C@H]3[C@@H]1CC[C@@H]2O` [β-estradiol] the “Vtg Conc, After β-estradiol” value (plasma Vtg [1]) was 0.351 µM and 0.487 µM and 0.343 µM and 0.278 µM and 0.375 µM and 0.471 µM and 0.120 µM and 0.225 µM and 0.113 µM and 0.344 µM and 0.460 µM, the “Vtg Conc, After β-estradiol” value (plasma Vtg [1]; [3]) was 6.389 µg/mL and 8.867 µg/mL and 6.239 µg/mL and 5.059 µg/mL and 6.830 µg/mL and 8.562 µg/mL and 2.182 µg/mL and 4.091 µg/mL and 2.057 µg/mL and 6.264 µg/mL and 8.370 µg/mL and the “SP Conc, After β-estradiol” value (plasma Vtg [1]; [4]) was 0.576 µg/mL and 0.799 µg/mL and 0.562 µg/mL and 0.456 µg/mL and 0.615 µg/mL and 0.771 µg/mL and 0.197 µg/mL and 0.368 µg/mL and 0.185 µg/mL and 0.564 µg/mL and 0.754 µg/mL. For the same compound, the “Vtg Conc, After β-estradiol” value (plasma Vtg [2]) was 0.383 µM and 0.591 µM and 0.268 µM and 0.399 µM and 0.330 µM, the “Vtg Conc, After β-estradiol” value (plasma Vtg [2]; [3]) was 6.967 µg/mL and 10.758 µg/mL and 4.876 µg/mL and 7.254 µg/mL and 5.997 µg/mL and the “SP Conc, After β-estradiol” value (plasma Vtg [2]; [4]) was 0.628 µg/mL and 0.969 µg/mL and 0.439 µg/mL and 0.653 µg/mL and 0.540 µg/mL. For the same compound, the “Vtg induction (SDS-PAGE band)” value (Vtg) was “strong induced band”.
